The experiment addresses Mushroom tyrosinase. Kind of experiment: o-diphenolase assay of mushroom tyrosinase, L-DOPA substrate, DOPAchrome absorbance at […] nm. Type of experiment: biochemical.

In turn, `CC(=O)OC[C@]12[C@H](OC(C)=O)[C@H](O)C[C@H](C)[C@]1(OC(C)=O)[C@@H](OC(C)=O)[C@@H](C(C)(C)O)C[C@H]2OC(=O)c1ccccc1` (relative stereo) [compound 1, 1β,5α,6α,14-tetraacetoxy-9α-benzoyloxy-7βH-eudesman-2β,11-diol] had a half-inhibitory concentration (IC50) of 14.8 µM.

Compound `CC(=O)O[C@@]12C[C@@H](C(C)(C)O)C[C@@H](OC(=O)c3ccccc3)[C@@]1(CO)[C@H](O)[C@H](O)C[C@@]2(C)OC(C)=O` (relative stereo) [compound 2, 4α,5α-diacetoxy-9α-benzoyloxy-7βH-eudesman-1β,2β,11,14-tetraol] had an IC50 of 22.3 µM.

Source of the values: PMC3766860, “Two Novel Tyrosinase Inhibitory Sesquiterpenes Induced by CuCl2 from a Marine-Derived Fungus Pestalotiopsis sp. Z233” (Marine Drugs, 2013).
